Measured values as given in patent US12490739B2, “Synergistically effective fungicide composition comprising choline phosphonate and at least one additional fungicide” (BELCHIM CROP PROTECTION NV, priority 2019, dated 2025).

How the values were obtained:
Format in all cases: in vivo
Venturia inaequalis [1] = test: Example 4 field trials, apple (Malus domestica var. Golden delicious) infected with scab; conditions: 250 g a.c./ha
Plasmopara viticola [2] = test: Example 7 field trial, Vitis vinifera var. Merlot infected with downy mildew, France; conditions: 130 g a.c./ha
Venturia inaequalis [3] = test: Example 5 field trials, apple (Malus domestica var. Golden delicious) infected with scab; conditions: 60 g a.c./ha
Uncinula necator = test: Example 12 field trial, Vitis vinifera var. Carignan infected with powdery mildew, France; conditions: 2320 g a.c./ha
Sphaerotheca fuliginea = test: Example 3 field trial, cucumber (Cucumis sativus var. Bosco) infected with powdery mildew, Italy; conditions: 2080 g a.c./ha
Podosphaera leucotricha = test: Example 13 field trials, apple (Malus domestica var. Gold Rush, var. Morgenduft Dallago) infected with powdery mildew; conditions: 2640 g a.c./ha
Peronospora cumensis = test: Example 2 field trial, cucumber (Cucumis sativus) infected with downy mildew, France; conditions: PESSEV, 150 g a.c./ha
Plasmopara viticola [4] = test: Example 1 field trial, Vitis vinifera var. Chardonnay infected with downy mildew, South Africa; conditions: 120 g a.c./ha
[5] = PESINC, location 1 (France), 6 DA-A4, BBCH 72
[6] = PESINC, location 3 (Belgium), 31 DA-A9, BBCH 73
[7] = PESINC, location 3 (Belgium), 80 DA-A9, BBCH 73
[8] = PESINC, 50 bunches, 14 DA-A3, BBCH 77
[9] = PESINC, 50 bunches, 14 DA-A5, BBCH 83
[10] = PESINC, 100 leaves, 14 DA-A3, BBCH 77
[11] = PESSEV, 50 bunches, 14 DA-A3, BBCH 77
[12] = PESSEV, 50 bunches, 14 DA-A5, BBCH 83
[13] = PESSEV, 100 leaves, 14 DA-A3, BBCH 77

SMILES: N#Cc1sc2c(=O)c3ccccc3c(=O)c=2sc1C#N [DIT, 5,10-dioxobenzo[g][1,4]benzodithiine-2,3-dicarbonitrile]
- DIT f.e. (%) (Venturia inaequalis [1]; PESINC, location 1 (France), 1 DA-A6, BBCH 74): 19.8%
- DIT f.e. (%) (Venturia inaequalis [1]; [5]): 38.6%
- DIT f.e. (%) (Venturia inaequalis [1]; PESINC, location 2 (United Kingdom), 5 DA-A8, BBCH 74): 59.0%
- DIT f.e. (%) (Venturia inaequalis [1]; [6]): 51.8%
- DIT f.e. (%) (Venturia inaequalis [1]; [7]): 42.6%
- DIT f.e. (%) (Venturia inaequalis [1]; PESSEV, location 1 (France), 1 DA-A6, BBCH 74): 63.0%
- DIT f.e. (%) (Venturia inaequalis [1]; PESSEV, location 1 (France), 6 DA-A4, BBCH 72): 75.4%

SMILES: O=C(NCc1ncc(C(F)(F)F)cc1Cl)c1c(Cl)cccc1Cl [FLU, 2,6-dichloro-N-[[3-chloro-5-(trifluoromethyl)pyridin-2-yl]methyl]benzamide]
- FLU f.e. (%) (Plasmopara viticola [2]; PESINC, 50 bunches, 0 DA-A3, BBCH 73): 84.4%
- FLU f.e. (%) (Plasmopara viticola [2]; PESINC, 50 bunches, 0 DA-A5, BBCH 77): 37.5%
- FLU f.e. (%) (Plasmopara viticola [2]; PESINC, 50 bunches, 9 DA-A6, BBCH 83): 14.5%
- FLU f.e. (%) (Plasmopara viticola [2]; PESINC, 100 leaves, 0 DA-A3, BBCH 73): 62.3%
- FLU f.e. (%) (Plasmopara viticola [2]; PESINC, 100 leaves, 0 DA-A5, BBCH 77): 47.8%
- FLU f.e. (%) (Plasmopara viticola [2]; PESINC, 100 leaves, 9 DA-A6, BBCH 83): 32.2%
- FLU f.e. (%) (Plasmopara viticola [2]; PESSEV, 50 bunches, 0 DA-A5, BBCH 77): 83.6%
- FLU f.e. (%) (Plasmopara viticola [2]; PESSEV, 50 bunches, 9 DA-A6, BBCH 83): 46.8%

SMILES: Cc1cc(OC(C)C)ccc1C(=O)C(C)(C)NC(=O)c1sccc1C [ISO, N-[1,1-dimethyl-2-(4-isopropoxy-o-tolyl)-2-oxoethyl]-3-methylthiophene-2-carboxamide]
- ISO f.e. (%) (Venturia inaequalis [3]; [5]): 13.3%
- ISO f.e. (%) (Venturia inaequalis [3]; PESINC, location 2 (Italy), 4 DA-A11, BBCH 75): 4.1%
- ISO f.e. (%) (Venturia inaequalis [3]; PESINC, location 2 (Italy), 6 DA-A9, BBCH 74): 12.1%
- ISO f.e. (%) (Venturia inaequalis [3]; PESINC, location 2 (Italy), 6 DA-A13, BBCH 77): 5.5%
- ISO f.e. (%) (Venturia inaequalis [3]; PESINC, location 2 (Italy), 7 DA-A6, BBCH 72): 16.8%
- ISO f.e. (%) (Venturia inaequalis [3]; [6]): 8.7%
- ISO f.e. (%) (Venturia inaequalis [3]; [7]): 2.2%
- ISO f.e. (%) (Venturia inaequalis [3]; PESSEV, location 2 (Italy), 4 DA-A11, BBCH 75): 22.6%
- ISO f.e. (%) (Venturia inaequalis [3]; PESSEV, location 2 (Italy), 6 DA-A9, BBCH 74): 25.3%
- ISO f.e. (%) (Venturia inaequalis [3]; PESSEV, location 2 (Italy), 6 DA-A13, BBCH 77): 27.7%
- ISO f.e. (%) (Venturia inaequalis [3]; PESSEV, location 2 (Italy), 7 DA-A6, BBCH 72): 32.9%

SMILES: S1SSSSSSS1 [S, sulphur]
- S f.e. (%) (Uncinula necator; [8]): 5.1%
- S f.e. (%) (Uncinula necator; PESINC, 50 bunches, 14 DA-A3, BBCH 77, second listing (r34)): 1.2%
- S f.e. (%) (Uncinula necator; [9]): 37.6%
- S f.e. (%) (Uncinula necator; PESINC, 50 bunches, 14 DA-A5, BBCH 83, second listing (r36)): 0%
- S f.e. (%) (Uncinula necator; [10]): 42.8%
- S f.e. (%) (Uncinula necator; PESINC, 100 leaves, 14 DA-A3, BBCH 77, second listing (r32)): 6.3%
- S f.e. (%) (Uncinula necator; [11]): 50.8%
- S f.e. (%) (Uncinula necator; PESSEV, 50 bunches, 14 DA-A3, BBCH 77, second listing (r28)): 6.0%
- S f.e. (%) (Uncinula necator; [12]): 14.2%
- S f.e. (%) (Uncinula necator; PESSEV, 50 bunches, 14 DA-A5, BBCH 83, second listing (r30)): 18.9%
- S f.e. (%) (Uncinula necator; [13]): 18.7%
- S f.e. (%) (Uncinula necator; PESSEV, 100 leaves, 14 DA-A3, BBCH 77, second listing (r26)): 13.9%
- S f.e. (%) (Sphaerotheca fuliginea; PESINC curative, 7 DA-A2, BBCH 73): 85.1%
- S f.e. (%) (Sphaerotheca fuliginea; PESINC curative, 7 DA-A3, BBCH 76): 87.5%
- S f.e. (%) (Sphaerotheca fuliginea; PESINC curative, 7 DA-A4, BBCH 77): 77.5%
- S f.e. (%) (Sphaerotheca fuliginea; PESINC curative, 14 DA-A4, BBCH 78): 58.9%
- S f.e. (%) (Sphaerotheca fuliginea; PESINC, 7 DA-A2, BBCH 73): 88.1%
- S f.e. (%) (Sphaerotheca fuliginea; PESINC, 7 DA-A3, BBCH 76): 95%
- S f.e. (%) (Sphaerotheca fuliginea; PESINC, 7 DA-A4, BBCH 77): 85.0%
- S f.e. (%) (Sphaerotheca fuliginea; PESINC, 14 DA-A4, BBCH 78): 75.2%
- S f.e. (%) (Sphaerotheca fuliginea; PESINC, 21 DA-A4, BBCH 79): 69.7%
- S f.e. (%) (Sphaerotheca fuliginea; PESSEV curative, 7 DA-A2, BBCH 73): 93.6%
- S f.e. (%) (Sphaerotheca fuliginea; PESSEV curative, 7 DA-A3, BBCH 76): 96%
- S f.e. (%) (Sphaerotheca fuliginea; PESSEV curative, 7 DA-A4, BBCH 77): 95%
- S f.e. (%) (Sphaerotheca fuliginea; PESSEV curative, 14 DA-A4, BBCH 78): 93.4%
- S f.e. (%) (Sphaerotheca fuliginea; PESSEV, 7 DA-A2, BBCH 73): 96.7%
- S f.e. (%) (Sphaerotheca fuliginea; PESSEV, 7 DA-A4, BBCH 77): 97.6%
- S f.e. (%) (Sphaerotheca fuliginea; PESSEV, 14 DA-A4, BBCH 78): 96.3%
- S f.e. (%) (Sphaerotheca fuliginea; PESSEV, 21 DA-A4, BBCH 79): 96.9%
- S f.e. (%) (Podosphaera leucotricha; PESINC, location 1 (France), 20 shoots, 7 DA-A5, BBCH 71): 80.0%
- S f.e. (%) (Podosphaera leucotricha; PESINC, location 1 (France), 100 leaves, 5 DA-A8, BBCH 74): 88.1%
- S f.e. (%) (Podosphaera leucotricha; PESINC, location 1 (France), 100 leaves, 6 DA-A6, BBCH 74): 59.1%
- S f.e. (%) (Podosphaera leucotricha; PESINC, location 1 (France), 100 leaves, 15 DA-A8, BBCH 76): 80.7%
- S f.e. (%) (Podosphaera leucotricha; PESINC, location 2 (Italy), 5 leaves, 5 DA-A6, BBCH 74): 63.9%
- S f.e. (%) (Podosphaera leucotricha; PESINC, location 2 (Italy), 40 shoots, 2 DA-A10, BBCH 74): 62.4%
- S f.e. (%) (Podosphaera leucotricha; PESINC, location 2 (Italy), 40 shoots, 6 DA-A5, BBCH 71): 57.8%
- S f.e. (%) (Podosphaera leucotricha; PESINC, location 2 (Italy), 40 shoots, 6 DA-A11, BBCH 74): 59.4%
- S f.e. (%) (Podosphaera leucotricha; PESSEV, location 1 (France), 100 leaves, 6 DA-A6, BBCH 74): 64.1%
- S f.e. (%) (Podosphaera leucotricha; PESSEV, location 1 (France), 100 leaves, 15 DA-A8, BBCH 76): 88.2%
- S f.e. (%) (Podosphaera leucotricha; PESSEV, location 2 (Italy), 5 leaves, 2 DA-A10, BBCH 74): 82.1%
- S f.e. (%) (Podosphaera leucotricha; PESSEV, location 2 (Italy), 5 leaves, 5 DA-A6, BBCH 74): 72.7%
- S f.e. (%) (Podosphaera leucotricha; PESSEV, location 2 (Italy), 5 leaves, 6 DA-A11, BBCH 74): 84.4%

SMILES: COC(=O)CC(NC(=O)[C@@H](NC(=O)OC(C)C)C(C)C)c1ccc(Cl)cc1 (stereo partly drawn) [VAL, methyl 3-(4-chlorophenyl)-3-[[(2S)-3-methyl-2-(propan-2-yloxycarbonylamino)butanoyl]amino]propanoate]
- VAL f.e. (%) (Peronospora cumensis; 6 DA-A2, BBCH 19): 31.7%
- VAL f.e. (%) (Peronospora cumensis; 7 DA-A1, BBCH 16): 43.6%
- VAL f.e. (%) (Peronospora cumensis; 7 DA-A4, BBCH 19): 62.1%
- VAL f.e. (%) (Peronospora cumensis; 8 DA-A3, BBCH 19): 31.7%
- VAL f.e. (%) (Peronospora cumensis; 14 DA-A4, BBCH 19): 27.0%
- VAL f.e. (%) (Plasmopara viticola [4]; [8]): 64.0%
- VAL f.e. (%) (Plasmopara viticola [4]; [9]): 53.6%
- VAL f.e. (%) (Plasmopara viticola [4]; [10]): 57.6%
- VAL f.e. (%) (Plasmopara viticola [4]; [11]): 75.9%
- VAL f.e. (%) (Plasmopara viticola [4]; [12]): 73.3%
- VAL f.e. (%) (Plasmopara viticola [4]; [13]): 66.9%
